molecular target: T1, human oxytocin receptor (Homo sapiens, UniProt P30559); assay: Oxytocin binding in Chinese Hamster Ovary cell membranes expressing human oxytocin receptors; details: 100 nM, CHO cell membranes, [3H]oxytocin, values without parentheses, read-out: OT % inhibition @ 100% nM
T1 construct: host or cells: CHO cells (pcDNA3.1 vector)
T1 sequence (P30559 1-389): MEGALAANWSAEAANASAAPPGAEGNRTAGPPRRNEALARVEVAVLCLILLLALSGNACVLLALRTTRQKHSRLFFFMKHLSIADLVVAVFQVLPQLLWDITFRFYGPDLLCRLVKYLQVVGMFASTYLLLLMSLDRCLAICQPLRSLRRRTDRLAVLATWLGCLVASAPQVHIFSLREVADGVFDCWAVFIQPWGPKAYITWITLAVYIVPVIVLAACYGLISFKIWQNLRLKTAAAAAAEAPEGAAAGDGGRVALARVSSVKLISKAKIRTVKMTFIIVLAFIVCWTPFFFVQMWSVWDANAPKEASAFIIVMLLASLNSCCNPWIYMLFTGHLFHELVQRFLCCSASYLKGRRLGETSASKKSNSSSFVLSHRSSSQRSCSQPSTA

Row | SMILES | inhibition at 0.1 µM
1 | Cc1ccccc1-c1ccc(C(=O)N2Cc3ccc(C(=O)N(C)CCCN(C)C)n3Cc3ccccc32)cc1 [Example 104, N-[3-(Dimethylamino)propyl]-N-methyl-10-[(2′-methyl[1,1′-biphenyl]-4-yl)carbonyl]-10,11-dihydro-5H-pyrrolo[2,1-c][1,4]benzodiazepine-3-carboxamide] | 96%
2 | COc1cc(C(=O)N2Cc3ccc(C(=O)N(C)CCN(C)C)n3Cc3ccccc32)ccc1-c1ccccc1C [Example 92, N-[2-(Dimethylamino)ethyl]-10-[(2-methoxy-2′-methyl[1,1′-biphenyl]-4-yl)carbonyl]-N-methyl-10,11-dihydro-5H-pyrrolo[2,1-c][1,4]benzodiazepine-3-carboxamide] | 99%
3 | Cc1ccccc1-c1ccc(C(=O)N2Cc3ccc(C(=O)N(C)CCCN(C)C)n3Cc3ccccc32)cc1C [Example 101, N-[3-(Dimethylamino)propyl]-10-[(2,2′-dimethyl[1,1′-biphenyl]-4-yl)carbonyl]-N-methyl-10,11-dihydro-5H-pyrrolo[2,1-c][1,4]benzodiazepine-3-carboxamide] | 100%
4 | COc1cccc(-c2ccc(C(=O)N3Cc4ccc(C(=O)N(C)CCCN(C)C)n4Cc4ccccc43)cc2C)c1 [Example 102, N-[3-(Dimethylamino)propyl]-10-[(3′-methoxy-2-methyl[1,1′-biphenyl]-4-yl)carbonyl]-N-methyl-10,11-dihydro-5H-pyrrolo[2,1-c][1,4]benzodiazepine-3-carboxamide] | 95%
5 | COc1cccc(-c2cc(OC)c(C(=O)N3Cc4ccc(C(=O)NCCCN(C)C)n4Cc4ccccc43)cc2Cl)c1 [Example 79, 10-[(6-Chloro-3,3′-dimethoxy[1,1′-biphenyl]-4-yl)carbonyl]-N-[3-(dimethylamino)propyl]-10,11-dihydro-5H-pyrrolo[2,1-c][1,4]benzodiazepine-3-carboxamide] | 35%
6 | COc1cc(C(=O)N2Cc3ccc(C(=O)NCCCN(C)C)n3Cc3ccccc32)ccc1-c1cccc2ccccc12 [Example 80, N-[3-(Dimethylamino)propyl]-10-[3-methoxy-4-(1-naphthyl)benzoyl]-10,11-dihydro-5H-pyrrolo[2,1-c][1,4]benzodiazepine-3-carboxamide] | 44%

same assay, conditions: CHO cell membranes, [3H]oxytocin, values in parentheses, read-out: OT (IC50)

Row | SMILES | IC50
7 | COc1ccccc1-c1ccc(C(=O)N2Cc3ccc(C(=O)N4CCCN(C)CC4)n3Cc3ccccc32)cc1 [Example 61, {10-[(2′-Methoxy[1,1′-biphenyl]-4-yl)carbonyl]-10,11-dihydro-5H-pyrrolo[2,1-c][1,4]benzodiazepin-3-yl}(4-methyl-1,4-diazepan-1-yl)methanone] | 4.5 nM
8 | C=CCN1CCN(C(=O)c2ccc3n2Cc2ccccc2N(C(=O)c2ccc(-c4ccccc4OC)cc2)C3)CC1 [Example 221, (4-Allyl-1-piperazinyl){10-[(2′-methoxy[1,1′-biphenyl]4-yl)carbonyl]-10,11-dihydro-5H -pyrrolo[2,1-c][1,4]benzodiazepin-3-yl}methanone] | 11.1 nM
9 | COc1cc(-c2ccccc2C)c(Cl)cc1C(=O)N1Cc2ccc(C(=O)N(C)CCCN(C)C)n2Cc2ccccc21 [Example 98, 10-[(6-Chloro-3-methoxy-2′-methyl[1,1′-biphenyl]-4-yl)carbonyl]-N-[3-(dimethylamino)propyl]-N-methyl-10,11-dihydro-5H-pyrrolo[2,1-c][1,4]benzodiazepine-3-carboxamide] | 2.48 nM
10 | COc1cccc(-c2cc(OC)c(C(=O)N3Cc4ccc(C(=O)N(C)CCCN(C)C)n4Cc4ccccc43)cc2Cl)c1 [Example 99, 10-[(6-Chloro-3,3′-dimethoxy[1,1′-biphenyl]-4-yl)carbonyl]-N-[3-(dimethylamino)propyl]-N-methyl-10,11-dihydro-5H-pyrrolo[2,1-c][1,4]benzodiazepine-3-carboxamide] | 2.04 nM
11 | COc1cc(-c2ccccc2C)c(Cl)cc1C(=O)N1Cc2ccc(C(=O)N(C)CCN(C)C)n2Cc2ccccc21 [Example 86, 10-[(6-Chloro-3-methoxy-2′-methyl[1,1′-biphenyl]-4-yl)carbonyl]-N-[2-(dimethylamino)ethyl]-N-methyl-10,11-dihydro-5H-pyrrolo[2,1-c][1,4]benzodiazepine-3-carboxamide] | 2.31 nM
12 | COc1cc(C(=O)N2Cc3cccn3Cc3ccccc32)ccc1-n1c(C)ccc1C [Example 27, [4-(2,5-Dimethyl-1-H-pyrrol-1-yl)-3-methoxy-phenyl][10,11-dihydro-5H-pyrrolo[2,1-c][1,4]benzodiazepin-10-yl]methanone] | 18.1 nM
13 | COc1ccccc1-c1ccc(C(=O)N2Cc3ccc(C(=O)N4CCC(N5CCCCC5)CC4)n3Cc3ccccc32)cc1 [Example 111, {10-[(2′-Methoxy[1,1′-biphenyl]-4-yl)carbonyl]-10,11-dihydro-5H-pyrrolo[2,1-c][1,4]benzodiazepin-3-yl}[4-(1-piperidinyl)-1-piperidinyl]methanone] | 6.7 nM
14 | Cc1cc(C(=O)N2Cc3ccc(C(=O)N(C)CCCN(C)C)n3Cc3ccccc32)ccc1-c1ccccc1C(F)(F)F [Example 97, N-[3-(Dimethylamino)propyl]-N-methyl-10-{[2-methyl-2′-(trifluoromethyl)[1,1′-biphenyl]-4-yl]carbonyl}-10,11-dihydro-5H-pyrrolo[2,1-c][1,4]benzodiazepine-3-carboxamide] | 7.14 nM
15 | COc1cc(C(=O)N2Cc3ccc(C(=O)N(C)CCN(C)C)n3Cc3ccccc32)ccc1-c1ccccc1C(F)(F)F [Example 22, N-Methyl-[N-(2-dimethylamino)ethyl]-10-{[2-methoxy-2′-trifluoromethyl-[1,1′-biphenyl]-4-yl]carbonyl}-10,11-dihydro-5H-pyrrolo[2,1-c][1,4]benzodiazepine-3-carboxamide] | 1.74 nM
16 | Cc1cc(C(=O)N2Cc3ccc(C(=O)N4CCCN(C)CC4)n3Cc3ccccc32)ccc1-c1ccccc1C(F)(F)F [Example 59, (4-Methyl-1,4-diazepan-1-yl)(10-{[2-methyl-2′-(trifluoromethyl)[1,1′-biphenyl]-4-yl]carbonyl}-10,11-dihydro-5H-pyrrolo[2,1-c][1,4]benzodiazepin-3-yl)methanone] | 16.4 nM
17 | COc1ccccc1-c1ccc(C(=O)N2Cc3ccc(C(=O)N4CCN(CCN(C)C)CC4)n3Cc3ccccc32)cc1C [Example 195, {4-[2-(Dimethylamino)ethyl]-1-piperazinyl}{10-[(2′-methoxy-2-methyl[1,1′-biphenyl]-4-yl)carbonyl]-10,11-dihydro-5H-pyrrolo[2,1-c][1,4]benzodiazepin-3-yl}methanone] | 3.84 nM
18 | COc1cc(-c2ccccc2C)c(Cl)cc1C(=O)N1Cc2ccc(C(=O)N3CCN(C)CC3)n2Cc2ccccc21 [Example 47, {10-[(6-Chloro-3-methoxy-2′-methyl[1,1′-biphenyl]-4-yl)carbonyl]-10,11-dihydro-5H-pyrrolo[2,1-c][1,4]benzodiazepin-3-yl}(4-methyl-1-piperazinyl)methanone] | 6.61 nM
19 | Cc1ccc(-c2ccc(C(=O)N3Cc4cccn4Cc4ccccc43)cc2)c2ccccc12 [Example 25, [4-(4-Methyl-naphthalen-1-yl)phenyl][10,11-dihydro-5H-pyrrolo[2,1-c][1,4]benzodiazepin-10-yl]methanone] | 55.8 nM
